Values joined by “and” are separate entries in the source; they are usually repeats but may differ in a detail not shown here. Equal entries are not always repeated.
Key:
[1] = system: Puccinia recondita f. Sp. Tritici; test: Puccinia recondita f. sp. tritici / wheat / leaf disc curative (brown rust); assay type: in vivo; settings: foliar, 200 ppm in the applied formulation, wheat leaf segments cv. Kanzler, applied 1 day after inoculation, assessed 6 to 8 days after application, read-out: disease control compared to untreated control leaf disks
Description: (§1) Leaf disks or leaf segments of various plant species are cut from plants grown in a greenhouse. The cut leaf disks or segments are placed in multiwell plates (24-well format) onto water agar. The leaf disks are sprayed with a test solution before (preventative) or after (curative) inoculation. Compounds to be tested are prepared as DMSO solutions (max. 10 mg/ml) which are diluted to the appropriate concentration with 0.025% Tween20 just before spraying. The inoculated leaf disks or segments are incubated under defined conditions (temperature, relative humidity, light, etc.) according to the respective test system. A single evaluation of disease level is carried out 3 to 14 days after inoculation, depending on the pathosystem. Percent disease control relative to the untreated check leaf disks or segments is then calculated.
Wheat leaf segments cv. Kanzler are placed on agar in multiwell plates (24-well format). The leaf segments are then inoculated with a spore suspension of the fungus. Plates were stored in darkness at 19° C. and 75% relative humidity. The formulated test compound diluted in water was applied 1 day after inoculation. The leaf segments were incubated at 19° C. and 75% relative humidity under a light regime of 12 hours light/12 hours darkness in a climate cabinet and the activity of a compound was assessed as percent disease control compared to untreated when an appropriate level of disease damage appears in untreated check leaf segments (6 to 8 days after application).
(§2) The following compounds at 200 ppm in the applied formulation give at least 80% disease control in this test when compared to untreated control leaf disks under the same conditions, which show extensive disease development.

[2] = system: Glomerella lagenarium (Colletotrichum lagenarium); test: Glomerella lagenarium (Colletotrichum lagenarium) liquid culture / cucumber / preventative (anthracnose); assay type: cell-based; settings: Colletotrichum orbiculare; 20 ppm in the applied formulation; liquid culture in PDB, 24° C.; 3 to 4 days after application; read-out: disease control compared to untreated control (inhibition of growth measured photometrically)
Description: Mycelia fragments or conidia suspensions of a fungus prepared either freshly from liquid cultures of the fungus or from cryogenic storage, are directly mixed into nutrient broth. DMSO solutions of the test compound (max. 10 mg/ml) are diluted with 0.025% Tween20 by a factor of 50 and 10 μl of this solution is pipetted into a microtiter plate (96-well format). The nutrient broth containing the fungal spores/mycelia fragments is then added to give an end concentration of the tested compound. The test plates are incubated in the dark at 24° C. and 96% relative humidity. The inhibition of fungal growth is determined photometrically after 2 to 7 days, depending on the pathosystem, and percent antifungal activity relative to the untreated check is calculated.
Conidia of the fungus from cryogenic storage are directly mixed into nutrient broth (PDB—potato dextrose broth). After placing a (DMSO) solution of test compound into a microtiter plate (96-well format), the nutrient broth containing the fungal spores is added. The test plates are incubated at 24° C. and the inhibition of growth is measured photometrically 3 to 4 days after application.
The following compounds at 20 ppm in the applied formulation give at least 80% disease control in this test when compared to untreated control under the same conditions, which show extensive disease development.

[3] = system: Puccinia recondita f. Sp. Tritici; test: Puccinia recondita f. sp. tritici / wheat / leaf disc preventative (brown rust); assay type: in vivo; settings: foliar, 200 ppm in the applied formulation, wheat leaf segments cv. Kanzler, inoculated 1 day after application, assessed 7 to 9 days after application, read-out: disease control compared to untreated control leaf disks
Description: as §1, with “calculated. Wheat leaf segments cv. Kanzler were placed on agar in multiwell plates (24-well format) and sprayed with the formulated test compound diluted in water. The leaf disks were inoculated with a spore suspension of the fungus 1 day after application. The inoculated leaf segments were incubated at 19° C. and 75% relative humidity (rh) under a light regime of 12 hours light/12 hours darkness in a climate cabinet and the activity of a compound was assessed as percent disease control compared to untreated when an appropriate level of disease damage appears in untreated check leaf segments (7 to 9 days after application). The following compounds at 200 ppm in the applied formulation give at least 80% disease control in this test when compared to untreated control leaf disks under the same conditions, which show extensive disease development.” for “calculated.”

Phakopsora pachyrhizi = Phakopsora pachyrhizi / soybean / leaf disc preventative (Asian soybean rust); assay type: in vivo; settings: foliar, 200 ppm in the applied formulation, soybean leaf disks, inoculated one day after application, assessed 12 to 14 days after application, read-out: disease control compared to untreated control leaf disks
Description: as §1
Soybean leaf disks are placed on water agar in multiwell plates (24-well format) and sprayed with the formulated test compound diluted in water. One day after application leaf discs are inoculated by spraying a spore suspension on the lower leaf surface. After an incubation period in a climate cabinet of 24-36 hours in darkness at 20° C. and 75% rh leaf disc are kept at 20° C. with 12 h light/day and 75% rh. The activity of a compound is assessed as percent disease control compared to untreated when an appropriate level of disease damage appears in untreated check leaf disks (12 to 14 days after application).
as §2

COc1ccc([S+]([O-])c2ccc(-c3noc(C(F)(F)F)n3)cc2)cc1 (stereo not drawn) [Compound 2.2, 3-[4-(4-methoxyphenyl)sulfinylphenyl]-5-(trifluoromethyl)-1,2,4-oxadiazole]
pest or weed control at 200 ppm [1]: ≥ 80%
inhibition at 20 ppm [2]: ≥ 80%
pest or weed control at 200 ppm [3]: ≥ 80%
melting point: 93 to 98 °C
pest or weed control at 200 ppm (Phakopsora pachyrhizi): ≥ 80%

FC(F)(F)c1nc(-c2ccc(Sc3ccccc3)nc2)no1 [Compound 1.7, 3-(6-phenylsulfanyl-3-pyridyl)-5-(trifluoromethyl)-1,2,4-oxadiazole]
pest or weed control at 200 ppm [1]: ≥ 80%
inhibition at 20 ppm [2]: ≥ 80%
melting point: 124 to 129 °C
pest or weed control at 200 ppm (Phakopsora pachyrhizi): ≥ 80%

[O-][S+](Cc1c(F)cc(-c2noc(C(F)(F)F)n2)cc1F)c1ccccc1 (stereo not drawn) [Compound 2.32, 3-[4-(benzenesulfinylmethyl)-3,5-difluoro-phenyl]-5-(trifluoromethyl)-1,2,4-oxadiazole]
pest or weed control at 200 ppm [1]: ≥ 80%
inhibition at 20 ppm [2]: ≥ 80%
melting point: 120 to 125 °C
pest or weed control at 200 ppm (Phakopsora pachyrhizi): ≥ 80%

FC(F)(F)c1nc(-c2ccc(SCCc3ccccc3)cc2)no1 [Compound 1.5, 3-[4-(2-phenylethylsulfanyl)phenyl]-5-(trifluoromethyl)-1,2,4-oxadiazole]
pest or weed control at 200 ppm [1]: ≥ 80%
inhibition at 20 ppm [2]: ≥ 80%
pest or weed control at 200 ppm [3]: ≥ 80%
pest or weed control at 200 ppm (Phakopsora pachyrhizi): ≥ 80%

FC(F)(F)c1nc(-c2ccc(CSc3ccccc3)nc2)no1 [Compound 1.23, 3-[6-(phenylsulfanylmethyl)-3-pyridyl]-5-(trifluoromethyl)-1,2,4-oxadiazole]
pest or weed control at 200 ppm [1]: ≥ 80%
inhibition at 20 ppm [2]: ≥ 80%
pest or weed control at 200 ppm [3]: ≥ 80%
melting point: 71 to 78 °C

Cc1ccccc1[S+]([O-])c1ccc(-c2noc(C(F)(F)F)n2)cc1 (stereo not drawn) [Compound 2.24, 3-[4-(o-tolylsulfinyl)phenyl]-5-(trifluoromethyl)-1,2,4-oxadiazole]
pest or weed control at 200 ppm [1]: ≥ 80%
inhibition at 20 ppm [2]: ≥ 80%
pest or weed control at 200 ppm [3]: ≥ 80%
melting point: 100 to 103 °C

[O-][S+](c1ccc(F)cc1)c1ccc(-c2noc(C(F)(F)F)n2)cc1 (stereo not drawn) [Compound 2.13, 3-[4-(4-fluorophenyl)sulfinylphenyl]-5-(trifluoromethyl)-1,2,4-oxadiazole]
pest or weed control at 200 ppm [1]: ≥ 80%
pest or weed control at 200 ppm [3]: ≥ 80%
melting point: 94 to 99 °C
pest or weed control at 200 ppm (Phakopsora pachyrhizi): ≥ 80%

COc1ccccc1[S+]([O-])c1ccc(-c2noc(C(F)(F)F)n2)cc1 (stereo not drawn) [Compound 2.15, 3-[4-(2-methoxyphenyl)sulfinyl-phenyl]-5-(trifluoromethyl)-1,2,4-oxadiazole]
pest or weed control at 200 ppm [1]: ≥ 80%
pest or weed control at 200 ppm [3]: ≥ 80%
melting point: 105 to 115 °C
pest or weed control at 200 ppm (Phakopsora pachyrhizi): ≥ 80%

[O-][S+](c1ccc(-c2noc(C(F)(F)F)n2)cc1)c1cccc(F)c1 (stereo not drawn) [Compound 2.20, 3-[4-(3-fluorophenyl)sulfinylphenyl]-5-(trifluoromethyl)-1,2,4-oxadiazole]
inhibition at 20 ppm [2]: ≥ 80%
pest or weed control at 200 ppm [3]: ≥ 80%
melting point: 103 to 111 °C
pest or weed control at 200 ppm (Phakopsora pachyrhizi): ≥ 80%

Fc1ccccc1SCc1ccc(-c2noc(C(F)(F)F)n2)cc1 [Compound 1.15, 3-[4-[(2-fluorophenyl)sulfanylmethyl]phenyl]-5-(trifluoromethyl)-1,2,4-oxadiazole]
pest or weed control at 200 ppm [1]: ≥ 80%
melting point: 56 to 61 °C
pest or weed control at 200 ppm (Phakopsora pachyrhizi): ≥ 80%

[O-][S+](c1ccc(-c2noc(C(F)(F)F)n2)cc1)C1CCCC1 (stereo not drawn) [Compound 2.23, 3-(4-cyclopentylsulfinylphenyl)-5-(trifluoromethyl)-1,2,4-oxadiazole]
pest or weed control at 200 ppm [1]: ≥ 80%
inhibition at 20 ppm [2]: ≥ 80%
pest or weed control at 200 ppm [3]: ≥ 80%
pest or weed control at 200 ppm (Phakopsora pachyrhizi): ≥ 80%

Fc1ccccc1Sc1ccc(-c2noc(C(F)(F)F)n2)cc1 [Compound 1.14, 3-[4-(2-fluorophenyl)sulfanylphenyl]-5-(trifluoromethyl)-1,2,4-oxadiazole]
pest or weed control at 200 ppm [1]: ≥ 80%
pest or weed control at 200 ppm [3]: ≥ 80%
melting point: 35 to 38 °C
pest or weed control at 200 ppm (Phakopsora pachyrhizi): ≥ 80%

Fc1cccc(F)c1Sc1ccc(-c2noc(C(F)(F)F)n2)cc1 [Compound 1.12, 3-[4-(2,6-difluorophenyl)sulfanylphenyl]-5-(trifluoromethyl)-1,2,4-oxadiazole]
pest or weed control at 200 ppm [1]: ≥ 80%
inhibition at 20 ppm [2]: ≥ 80%
melting point: 75 to 85 °C
pest or weed control at 200 ppm (Phakopsora pachyrhizi): ≥ 80%

O=S(=O)(c1ccccc1)c1ccc(-c2noc(C(F)(F)F)n2)cn1 [Compound 3.7, 3-[6-(benzenesulfonyl)-3-pyridyl]-5-(trifluoromethyl)-1,2,4-oxadiazole]
inhibition at 20 ppm [2]: ≥ 80%
pest or weed control at 200 ppm [3]: ≥ 80%
melting point: 124 to 127 °C and 124 to 129 °C
pest or weed control at 200 ppm (Phakopsora pachyrhizi): ≥ 80%

CCC(C)C[S+]([O-])c1ccc(-c2noc(C(F)(F)F)n2)cc1 (stereo not drawn) [Compound 2.22, 3-[4-(2-methylbutylsulfinyl)phenyl]-5-(trifluoromethyl)-1,2,4-oxadiazole]
pest or weed control at 200 ppm [1]: ≥ 80%
inhibition at 20 ppm [2]: ≥ 80%
melting point: 38 to 43 °C
pest or weed control at 200 ppm (Phakopsora pachyrhizi): ≥ 80%

CC(C)(C)[S+]([O-])c1ccc(-c2noc(C(F)(F)F)n2)cc1 (stereo not drawn) [Compound 2.19, 3-(4-tert-butylsulfinylphenyl)-5-(trifluoromethyl)-1,2,4-oxadiazole]
pest or weed control at 200 ppm [1]: ≥ 80%
inhibition at 20 ppm [2]: ≥ 80%
pest or weed control at 200 ppm [3]: ≥ 80%
pest or weed control at 200 ppm (Phakopsora pachyrhizi): ≥ 80%

[O-][S+](Cc1ccc(-c2noc(C(F)(F)F)n2)c(F)c1F)c1ccccc1 (stereo not drawn) [Compound 2.31, 3-[4-(benzenesulfinylmethyl)-2,3-difluoro-phenyl]-5-(trifluoromethyl)-1,2,4-oxadiazole]
inhibition at 20 ppm [2]: ≥ 80%
pest or weed control at 200 ppm [3]: ≥ 80%
melting point: 163 to 167 °C
pest or weed control at 200 ppm (Phakopsora pachyrhizi): ≥ 80%

[O-][S+](c1ccc(-c2noc(C(F)(F)F)n2)cn1)c1ccccc1F (stereo not drawn) [Compound 2.26, 3-[6-(2-fluorophenyl)sulfinyl-3-pyridyl]-5-(trifluoromethyl)-1,2,4-oxadiazole]
pest or weed control at 200 ppm [1]: ≥ 80%
inhibition at 20 ppm [2]: ≥ 80%
pest or weed control at 200 ppm [3]: ≥ 80%
melting point: 92 to 95 °C

Reference: patent US20180319753A1, “MICROBIOCIDAL OXADIAZOLE DERIVATIVES” (SYNGENTA PARTICIPATIONS AG, priority 2015, published 2018)
